# Assay results from US20250290928A1, “METHOD, KIT AND DEVICE FOR DETECTING EXTRACELLULAR VESICLES” (priority 2022, published 2025).
# No end group written: not given here. TQ3 = quencher
# Experiments:
# [1] = test system: MMP in the MDA-MB-231-derived extracellular vesicles; test: Evaluation of MMP activity of MDA-MB-231-derived extracellular vesicles with 96-well plate (SensoLyte 520 MMP Substrate Sampler Kit); format: biochemical, Human; details: MP, EV 3.3 μg/mL
# Procedure: 50 μL of the MMP detection solution was added to 50 μL of each of the samples, a reaction was performed at 30° C., and MMP activity was evaluated.
# 50 μL of each of the MMP detection solutions was added to 50 μL of each of the samples, a reaction was performed at 30° C., and MMP activity was evaluated.
# [2] = target: T1, MMP14 in the MDA-MB-231-derived extracellular vesicles (Homo sapiens, UniProt P50281); test: Digital detection through MMP14 activity of MDA-MB-231-derived extracellular vesicles captured on anti-CD9/CD63/CD81 antibody-immobilized particles; format: biochemical; details: 24 hours of reaction
# T1 construct: in terms of intact MMP14 with a molecular weight of 70 kDa
# Procedure: The concentration of the solution is 10 μg/mL.
# For detection of MMP14 activity, 1 mM Custom #2 was diluted with the buffer (4) to prepare a MMP14 detection solution containing 10 μM Custom #2.
# The number of the particles was increased 4-fold, and a reaction was allowed to proceed. However, the number and concentration of the particles used to fill the wells are finally the same as those in other Examples.
# The concentration of the solution is 10 μg/mL. The solution was subjected to 3-fold serial dilution to prepare standard samples with seven concentrations.
# For detection of MMP14 activity, 1 mM Custom #2 and a 100 µM resorufin β-D-galactopyranoside solution were diluted with the buffer (4) to prepare a MMP14 and CD9/CD63/CD81 cocktail detection solution (1) containing 10 μM Custom #2 and 5 μM resorufin β-D-galactopyranoside. In addition, the solution was diluted 2-fold with the buffer (4) to prepare a detection solution (2). Nonfluorescent resorufin β-D-galactopyranoside is degraded by β-galactosidase to produce fluorescent resorufin. In this case, the maximum wavelengths of excitation and fluorescence of resorufin are 570 nm and 585 nm, respectively.
# In addition, an antibody-immobilized particle solution was prepared and stored at 4° C. until use, in the same manner as in Example 28 except that Magnosphere MS300/Carboxyl (manufactured by JSR Corporation) (hereinafter abbreviated as “MS300C”) was used as magnetic particles.
# For detection of MMP14 activity, 1 mM Custom #2 was diluted with the buffer (4) to prepare a MMP14 detection solution containing 5 μM Custom #2. In addition, 1 mM Custom #2T was diluted with the buffer (4) to prepare a MMP14 detection solution containing 2.5 μM Custom #2T.
# An antibody-immobilized particle solution was prepared and stored at 4° C. until use, in the same manner as in Example 28 except that: MS300C was used as magnetic particles; and blocking treatment was performed at 4° C. or room temperature through use of Blockmaster CE210 or CE510 (manufactured by Medical & Biological Laboratories Co., Ltd.) instead of Bead Blocking Buffer (manufactured by Quanterix Corporation).
# For detection of MMP14 activity, 1 mM Custom #2 and 1 mM Custom #2T were diluted with the buffer (4) to prepare a MMP14 detection solution containing 5 μM Custom #2 and 2.5 μM Custom #2T serving as the reporter molecules in the same system. […]
# [3] = target: T1, MMP14 in the MDA-MB-231-derived extracellular vesicles; test: Digital detection through MMP14 activity of MDA-MB-231-derived extracellular vesicles captured on Tim4-immobilized magnetic particles; format: biochemical; details: Table 56, MB231 Present, 24 hours at 23° C.
substance,measurement,setting,value
TAMRA-GGPLGLAGGK(TQ3) ({TAMRA}-GGPLGLAGGK(TQ3)) [Custom #2T],Fluorescence change after 2 hours of reaction at 30° C.,[1]; 1.25 μM Custom #2T with 1.25 μM SB2,"1,319 ΔRFU"
same,Fluorescence change after 2 hours of reaction at 30° C.,[1]; 1.25 μM Custom #2T with 1.25 μM SB6,"1,527 ΔRFU"
same,Fluorescence change after 2 hours of reaction at 30° C.,[1]; 1.25 μM Custom #2T with 1.25 μM SB7,626 ΔRFU
same,Fluorescence change after 2 hours of reaction at 30° C.,[1]; 1.25 μM Custom #2T with 1.25 μM SB9,469 ΔRFU
same,Fluorescence change after 2 hours of reaction at 30° C.,[1]; 1.25 μM Custom #2T with 1.25 μM SB10,"1,030 ΔRFU"
same,Fluorescence change after 2 hours of reaction at 30° C.,[1]; 5 μM Custom #2T with 5 μM SB2,710 ΔRFU
same,Fluorescence change after 2 hours of reaction at 30° C.,[1]; 5 μM Custom #2T with 5 μM SB6,"1,161 ΔRFU"
same,Fluorescence change after 2 hours of reaction at 30° C.,[1]; 5 μM Custom #2T with 5 μM SB7,288 ΔRFU
same,Fluorescence change after 2 hours of reaction at 30° C.,[1]; 5 μM Custom #2T with 5 μM SB9,153 ΔRFU
same,Fluorescence change after 2 hours of reaction at 30° C.,[1]; 5 μM Custom #2T with 5 μM SB10,592 ΔRFU
same,Extracellular vesicle concentration,"[2]; Particle MS300C, MB231 Absent",0.01 ×10^5/μg of protein
same,Particle Expected value λ,"[2]; Particle MS300C, MB231 Absent",0.002
same,Extracellular vesicle concentration,"[2]; Particle MS300C, MB231 Present",1.4687 ×10^5/μg of protein
same,Particle Expected value λ,"[2]; Particle MS300C, MB231 Present",0.2937
same,Extracellular vesicle concentration,"[2]; Particle Simoa, MB231 Absent",0.0098 ×10^5/μg of protein
same,Particle Expected value λ,"[2]; Particle Simoa, MB231 Absent",0.00196
same,Extracellular vesicle concentration,"[2]; Particle Simoa, MB231 Present",0.3874 ×10^5/μg of protein
same,Particle Expected value λ,"[2]; Particle Simoa, MB231 Present",0.07748
same,Particle Number of positives,[3]; Particle MS300C,"1,460"
same,Particle Number of positives,[3]; Particle Simoa,359
